Experimental data as given in ChEMBL document CHEMBL5236635, “Structure-Based Drug Design and Synthesis of Novel N-Aryl-2,4-bithiazole-2-amine CYP1B1-Selective Inhibitors in Overcoming Taxol Resistance in A549 Cells” (J Med Chem, 2022).

Columns and labels:
Cytochrome P450 1B1 = target: T1, Cytochrome P450 1B1 (Homo sapiens, UniProt Q16678); experiment: Inhibition of recombinant human CYP1B1 using 7-ethyl-0-resorufin as substrate incubated for 30 mins in presence of NADPH by EROD assay
T1 sequence (Q16678 whole entry): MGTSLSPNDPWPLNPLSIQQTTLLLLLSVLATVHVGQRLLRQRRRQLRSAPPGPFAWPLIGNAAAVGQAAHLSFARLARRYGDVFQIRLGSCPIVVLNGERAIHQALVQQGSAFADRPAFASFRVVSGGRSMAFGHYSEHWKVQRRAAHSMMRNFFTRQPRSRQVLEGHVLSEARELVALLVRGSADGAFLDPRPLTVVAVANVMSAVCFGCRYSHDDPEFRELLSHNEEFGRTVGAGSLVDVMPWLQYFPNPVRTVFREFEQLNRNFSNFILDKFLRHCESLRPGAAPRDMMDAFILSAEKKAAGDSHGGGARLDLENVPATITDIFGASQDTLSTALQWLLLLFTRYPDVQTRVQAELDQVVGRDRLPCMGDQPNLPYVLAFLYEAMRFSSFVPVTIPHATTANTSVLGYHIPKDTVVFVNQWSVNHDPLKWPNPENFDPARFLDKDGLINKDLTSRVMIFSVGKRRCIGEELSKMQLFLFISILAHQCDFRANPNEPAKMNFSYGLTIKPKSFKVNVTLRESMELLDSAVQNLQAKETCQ

Cytochrome P450 1A1 = target: T2, Cytochrome P450 1A1 (Homo sapiens, UniProt P04798); experiment: Inhibition of recombinant human CYP1A1 using 7-ethyl-0-resorufin as substrate incubated for 30 mins in presence of NADPH by EROD assay
T2 sequence (P04798 whole entry): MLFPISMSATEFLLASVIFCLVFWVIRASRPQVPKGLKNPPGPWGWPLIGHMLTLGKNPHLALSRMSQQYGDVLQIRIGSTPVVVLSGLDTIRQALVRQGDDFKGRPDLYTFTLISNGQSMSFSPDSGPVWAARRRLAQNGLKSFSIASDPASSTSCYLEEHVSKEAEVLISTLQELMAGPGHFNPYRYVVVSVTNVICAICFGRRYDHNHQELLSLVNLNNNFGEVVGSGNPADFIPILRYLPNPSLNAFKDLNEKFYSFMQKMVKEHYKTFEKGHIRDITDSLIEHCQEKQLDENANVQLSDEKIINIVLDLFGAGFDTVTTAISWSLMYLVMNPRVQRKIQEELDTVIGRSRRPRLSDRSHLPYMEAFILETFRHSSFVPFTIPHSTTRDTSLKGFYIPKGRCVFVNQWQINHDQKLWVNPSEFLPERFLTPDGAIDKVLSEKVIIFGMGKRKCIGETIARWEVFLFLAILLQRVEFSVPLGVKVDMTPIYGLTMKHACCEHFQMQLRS

CYP1A2 versus CYP1B1 = experiment: Selectivity index, ratio of IC50 for inhibition of recombinant human CYP1A2 to IC50 for inhibition of recombinant human CYP1B1; conditions: recombinant human CYP1A2 and recombinant human CYP1B1
Cytochrome P450 1A2 = target: T3, Cytochrome P450 1A2 (Homo sapiens, UniProt P05177); experiment: Inhibition of recombinant human CYP1A2 using 7-ethyl-0-resorufin as substrate incubated for 30 mins in presence of NADPH by EROD assay
T3 sequence (P05177 whole entry): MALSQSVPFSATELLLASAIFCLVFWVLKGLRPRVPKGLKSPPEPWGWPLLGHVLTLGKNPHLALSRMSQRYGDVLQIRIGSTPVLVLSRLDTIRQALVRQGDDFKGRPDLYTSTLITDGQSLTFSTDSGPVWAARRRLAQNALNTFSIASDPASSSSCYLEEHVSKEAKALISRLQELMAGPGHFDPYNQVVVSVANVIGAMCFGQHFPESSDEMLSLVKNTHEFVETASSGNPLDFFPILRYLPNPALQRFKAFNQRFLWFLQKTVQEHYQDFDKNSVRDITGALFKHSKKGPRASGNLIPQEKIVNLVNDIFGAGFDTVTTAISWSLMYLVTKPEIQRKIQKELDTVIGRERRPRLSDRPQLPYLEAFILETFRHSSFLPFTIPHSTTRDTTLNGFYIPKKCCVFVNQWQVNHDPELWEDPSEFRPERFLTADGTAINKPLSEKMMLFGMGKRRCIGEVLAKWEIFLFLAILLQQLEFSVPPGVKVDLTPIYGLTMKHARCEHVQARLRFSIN

CYP1A1 versus CYP1B1 = experiment: Selectivity index, ratio of IC50 for inhibition of recombinant human CYP1A1 to IC50 for inhibition of recombinant human CYP1B1; conditions: recombinant human CYP1A1 and recombinant human CYP1B1
CYP1B1 = target: T4, CYP1B1 (Homo sapiens, UniProt Q16678); experiment: Inhibition of recombinant human CYP1B1 assessed as inhibition ratio at 100 nM using 7-ethyl-0-resorufin as substrate incubated for 30 mins in presence of NADPH by EROD assay relative to control; conditions: recombinant human CYP1B1, probe 7-ethyl-0-resorufin
T4 sequence (Q16678 whole entry): T1 sequence (Q16678 whole entry)

| Compound | IC50 (Cytochrome P450 1B1) | IC50 (Cytochrome P450 1A1) | IC50 (Cytochrome P450 1A2) | inhibition at 0.5 h, 0.1 µM (CYP1B1) | selectivity ratio (CYP1A2 versus CYP1B1) | selectivity ratio (CYP1A1 versus CYP1B1) |
| --- | --- | --- | --- | --- | --- | --- |
| c1ccc(Nc2nc(-c3nccs3)cs2)cc1 | – | – | – | 56.4% | – | – |
| COc1ccc(Nc2nc(-c3nccs3)cs2)cc1OC | – | – | – | 78.9% | – | – |
| COc1cc(Nc2nc(-c3nc(-c4ccccc4)c(C)s3)cs2)cc(OC)c1 | 64.8 nM | 388 nM | 913 nM | – | 14.1 | 5.98 |
| COc1cccc(-c2csc(-c3csc(Nc4ccc(N5CCOCC5)cc4)n3)n2)c1 | 26.8 nM | 315 nM | 4670 nM | – | 174 | 11.7 |
| Clc1cccc(Nc2nc(-c3nccs3)cs2)c1 | 7.6 nM | 262 nM | – | 90% | – | – |
| COc1ccc(Nc2nc(-c3nccs3)cs2)cc1 | – | – | – | 78% | – | – |
| Cc1sc(-c2csc(Nc3cc(Cl)cc(Cl)c3)n2)nc1-c1ccccc1 | 23.3 nM | 316 nM | 313 nM | – | 13.4 | 13.5 |
| c1cc(-c2csc(-c3csc(Nc4ccc(N5CCOCC5)cc4)n3)n2)ccn1 | 153 nM | 4460 nM | 312 nM | – | 2.04 | 29.2 |
| CN1CCN(c2ccc(Nc3nc(-c4nccs4)cs3)cc2)CC1 | – | – | – | 51% | – | – |
| CC(=O)Nc1cccc(Nc2nc(-c3nccs3)cs2)c1 | – | – | – | 93.7% | – | – |
| COc1cc(Nc2nc(-c3nc(-c4cccc(Cl)c4)cs3)cs2)cc(OC)c1 | 15.9 nM | 6520 nM | – | – | – | – |
| c1cc(Nc2nc(-c3nccs3)cs2)c2cccnc2c1 | – | – | – | 36% | – | – |
| COc1cccc(Nc2nc(-c3nccs3)cs2)c1 | – | 414 nM | – | 94.2% | – | 5.39 |

Second part, led by results:

| IC50 (Cytochrome P450 1B1) | IC50 (Cytochrome P450 1A1) | IC50 (Cytochrome P450 1A2) | inhibition at 0.5 h, 0.1 µM (CYP1B1) | Compound | selectivity ratio (CYP1A2 versus CYP1B1) | selectivity ratio (CYP1A1 versus CYP1B1) |
| --- | --- | --- | --- | --- | --- | --- |
| 11.8 nM | 314 nM | – | – | Fc1cccc(Nc2nc(-c3nc(-c4ccccn4)cs3)cs2)c1 | – | – |
| 22.2 nM | 125 nM | 1040 nM | – | C#CCOc1ccccc1-c1csc(-c2csc(Nc3cccc(F)c3)n2)n1 | 46.8 | 5.64 |
| 16.7 nM | 552 nM | – | – | COc1cc(Nc2nc(-c3nc(-c4cccc(C#N)c4)cs3)cs2)cc(OC)c1 | – | – |
| 6.64 nM | 1120 nM | – | – | Clc1cc(Cl)cc(Nc2nc(-c3nc(-c4ccccc4Cl)cs3)cs2)c1 | – | – |
| 246 nM | 246 nM | – | – | CCc1sc(-c2csc(Nc3cccc(F)c3)n2)nc1-c1ccccc1 | – | – |
| 6.49 nM | 1270 nM | – | – | Fc1cccc(Nc2nc(-c3nc(-c4ccccc4)cs3)cs2)c1 | – | – |
| 44.8 nM | 916 nM | 5390 nM | – | Clc1cc(Cl)cc(Nc2nc(-c3nc(-c4ccccn4)cs3)cs2)c1 | 120 | 20.4 |
| 518 nM | 6780 nM | – | – | Fc1cccc(Nc2nc(-c3nc(-c4ccccc4)c(-c4ccccc4)s3)cs2)c1 | – | – |
| 0.551 nM | 30.3 nM | – | – | Fc1cccc(Nc2nc(-c3nc(-c4cccnc4)cs3)cs2)c1 | – | – |
| 8.07 nM | 323 nM | 1250 nM | – | COc1cc(Nc2nc(-c3nc(-c4ccccc4Cl)cs3)cs2)cc(OC)c1 | 155 | 40 |
| 20.1 nM | 896 nM | – | – | Clc1cc(Cl)cc(Nc2nc(-c3nc(-c4ccccc4)cs3)cs2)c1 | – | – |
| > 1000 nM | > 10000 nM | > 10000 nM | – | Fc1cccc(Nc2nc(-c3nc(-c4ccc(Cl)cc4F)cs3)cs2)c1 | – | – |
| 11.6 nM | 334 nM | 2860 nM | – | c1ccc(-c2csc(-c3csc(Nc4ccc(N5CCOCC5)cc4)n3)n2)cc1 | 247 | 28.9 |
| 77.6 nM | 271 nM | 916 nM | – | C#CCOc1ccccc1-c1csc(-c2csc(Nc3cc(OC)cc(OC)c3)n2)n1 | 11.8 | 3.49 |
| 11.1 nM | 820 nM | – | – | COc1cc(Nc2nc(-c3nc(-c4cccc(F)c4)cs3)cs2)cc(OC)c1 | – | – |
